The values that follow come from patent US11117932B2, “Peptides for specific inhibition of Jag 1-Notch 1 pathway” (The Hong Kong Polytechnic University, priority 2018, dated 2021).

One series relates to S1. Nature of the series: cells. It counts as cell-based, human. Here is the method:
(§1) HCT-116, HCT-15, S1-M1-80, S1, L929, HEK293T-Jagged-1 were seeded in each well of a 96-well plate with a series of concentrations (a serial dilution from 1000μM to 0.5 μM) of peptides or drugs including DAPT, Topotecan at 37° C. with 5% CO2 in a humidified incubator for 3 days. Percentage of survival was determined by MTS assay as described.

For series [1], the system named is S1-M1-80 cells. Nature of the series: cells. The class given is cell-based, human. Here is the method: as §1
The next series concerns Jag1-Notch1 signalling. Nature of the series: Co-culture Notch luciferase reporter assay, Jag1-induced. The note with it: peptides 25 μM. The class given is cell-based, human. Here is the method:
Jag1-Notch interaction is measured using a co-culture assay with one cell line expressing the Notch ligand Jagged1 (Jag1) and a second expressing Notch (either Notch1 or Notch2). A firefly luciferase reporter plasmid with 12 upstream CBF-1 binding site was transfected into signalling-receiving cells to report on Notch signalling (FIG. 1D). Peptides were tested for their activity in inhibiting Jag1-induced Notch signalling. Complete inhibition is equivalent to the background signal seen without induction (−Jag1). […] N1 (SEQ ID NO: 10) is a 15-mer derived from the EGF-like repeat 12 of Notch1 (C467-G481). This is consistent with the structural information that EGF-like repeat 12 of Notch1 is near the MNNL domain of Jag1 (FIGS. 1B and C).
Specificity of N1 (SEQ ID NO: 10) peptide in inhibiting different Notch ligand-induced Notch signaling was investigated using in vitro co-culture assay. HEK293T or CHO cells expressing Notch ligand (either Jag1, DLL1 or DLL4) are co-cultured with Notch1- or Notch2-expressing cells. Notch1 and Notch2 signalling can be measured by either luciferase reporter assay or by the formation of NICD1 and NICD2. […] Half inhibition is reached at between 50 to 100 μM. […] This contrasts with DAPT which affects all the above interactions.
HEK-293T-Jagged-1 cells were seeded in 24-well plates in triplicate per sample group, and human HCT-116 cells were seeded in one 60 mm dish. Cells were allowed to settle, and were transfected the following day after the medium was changed to be antibiotic free. HCT-116 cells were transfected with 12×CSL-Luc and Renilla-Luc, using Lipofectamine® 3000 (Invitrogen™), according to the manufacturer's instructions. After 24 hours, HCT-116 cells were scraped and 2.5×10^4 cells in 1 mL complete medium per well were added to both 24-well plates. Peptides were treated to cells with the desired concentrations. N—[N-(3,5-difluorophenacetyl)-L-alanyl]-S-phenylglycine t-butyl ester (DAPT) was used as positive control. Cells were co-cultured for 12 hours before measure the luciferase activity. After incubation, cells were lysed with luciferase lysis buffer. Notch activity in cells expressing the 12×CSL-Luc reporter construct was measured by a luciferase assay using Dual-Luciferase® Reporter Assay System (Promega).

A further series has as its system HEK-293T-Jagged-1 cells. The class given is cell-based, human. Here is the method: as §1
The next series in a line: in vitro. It counts as cell-based. The note with it: mouse. Here is the method: as §1
Series [2] deals with S1-M1-80 cells. Nature of the series: Clonogenicity assay, S1-M1-80. It counts as cell-based, human. The note with it: S1-M1-80, single agent 1 μM. The protocol: The procedure for colony formation assay consists of following steps. An appropriate number of cells per well were seeded on a 6-well plate in duplicate. The number of cells for seeding should be related to the aggressiveness of the treatment. The cells were incubated for 12 hours in a CO2 incubator at 37° C. and allow cells to attach to the plate. The cells were treated with peptides or (DAPT) to required concentrations. The cells were incubated in a in a CO2 incubator at 37° C. for about 10 days until cells in control well have formed colonies which are of a substantially good size (the minimum score is 100 cells per colony). After the incubation, the medium was removed and cells were rinsed with 5 ml 1×PBS (phosphate buffered saline. pH 7.2). The cells were then fixed with 1 ml methanol at room temperature for 10 min. After fixation, the cells were stained with 0.5% crystal violet solution and incubated at room temperature for 1 h. After staining, the plates were immersed in deionized water to rinse off crystal violet and air-dried at room temperature for overnight. The dry plates were pictured with scanner. The number of colonies in each well was counted by cell counter software.

Where two headings read alike, the source gives them in different places. Residues, ends and D or L forms follow the SMILES beside them. No end group written: not given here.

With `CC[C@H](C)[C@H](NC(=O)[C@H](CCC(N)=O)NC(=O)[C@H](CC(=O)O)NC(=O)[C@H](CC(C)C)NC(=O)[C@@H](N)CS)C(=O)NCC(=O)N[C@@H](CCC(=O)O)C(=O)N[C@@H](Cc1ccccc1)C(=O)N[C@@H](CCC(N)=O)C(=O)N[C@@H](CS)C(=O)N[C@H](C(=O)N[C@@H](CS)C(=O)N[C@@H](CCSC)C(=O)O)[C@@H](C)CC` [Peptide N102, CLDQIGEFQCICM] (H-CLDQIGEFQCICM-OH; N-terminus and C-terminus assumed), the IC50 (in general, the concentration needed to halve the response being measured) in the series on S1 is above 50 µM; with S1-M1-80 cells [1], 10.2 ± 0.4 µM. Besides, in the series on Jag1-Notch1 signalling, the “inhibition of Jag1-induced Notch signaling compared with N1” value (“inhibition … compared with N1” below) is given as “stronger inhibitory effect than N1”.

For `CC[C@H](C)[C@H](NC(=O)[C@H](CS)NC(=O)[C@H](CCC(N)=O)NC(=O)[C@H](Cc1ccccc1)NC(=O)[C@H](CCC(=O)O)NC(=O)CNC(=O)[C@H](Cc1c[nH]c2ccccc12)NC(=O)[C@H](CCC(N)=O)NC(=O)[C@H](CC(=O)O)NC(=O)[C@H](CC(C)C)NC(=O)[C@@H](N)CS)C(=O)N[C@@H](CS)C(=O)N[C@@H](CCSC)C(=O)O` [Peptide N102I471W, CLDQWGEFQCICM] (H-CLDQWGEFQCICM-OH; N-terminus and C-terminus assumed), the figures for the IC50 in the series with S1 and in the series with S1-M1-80 cells [1] were above 100 µM and above 50 µM, respectively. Besides, the “inhibition … compared with N1” value in the series on Jag1-Notch1 signalling is listed as “slight improvement”.

`CC[C@H](C)[C@H](NC(=O)[C@H](CS)NC(=O)[C@H](CCC(N)=O)NC(=O)[C@H](Cc1ccccc1)NC(=O)[C@H](CCC(=O)O)NC(=O)CNC(=O)[C@@H](NC(=O)[C@H](CCC(N)=O)NC(=O)[C@H](CC(=O)O)NC(=O)[C@H](CC(C)C)NC(=O)[C@@H](N)CS)[C@@H](C)CC)C(=O)O` [Peptide N104, CLDQIGEFQCI] (H-CLDQIGEFQCI-OH; N-terminus and C-terminus assumed): the IC50 is above 50 µM in the series with S1 and 28.4 ± 0.6 µM in the series with S1-M1-80 cells [1]. In addition, the “inhibition … compared with N1” value in the series on Jag1-Notch1 signalling is recorded as “stronger inhibitory effect than N1”.

As to `CC[C@H](C)[C@H](NC(=O)[C@H](CCC(N)=O)NC(=O)[C@H](CC(=O)O)NC(=O)[C@H](CC(C)C)NC(=O)[C@H](CS)NC(=O)[C@@H](N)Cc1ccc(O)cc1)C(=O)NCC(=O)N[C@@H](CCC(=O)O)C(=O)N[C@@H](Cc1ccccc1)C(=O)N[C@@H](CCC(N)=O)C(=O)N[C@@H](CS)C(=O)N[C@H](C(=O)N[C@@H](CS)C(=O)N[C@@H](CCC(=O)O)C(=O)O)[C@@H](C)CC` [N102T466Y-M479E, YCLDQIGEFQCICE] (H-YCLDQIGEFQCICE-OH; N-terminus and C-terminus assumed), the values for the IC50 in the series with HEK-293T-Jagged-1 cells and with S1-M1-80 cells [1] were above 100 µM and 14.9 ± 4.8 µM, respectively. Further, in “in vitro”, the IC50 at 3 days was above 100 µM.

For CLDQIGEFQ [Peptide N106, CLDQIGEFQ], the concentration for half-maximal inhibition (IC50) with S1 and with S1-M1-80 cells [1] was above 100 µM each time.

In the case of `CC[C@H](C)[C@H](NC(=O)[C@H](CCC(N)=O)NC(=O)[C@H](CC(=O)O)NC(=O)[C@H](CC(C)C)NC(=O)[C@H](CS)NC(=O)[C@@H](N)Cc1ccccc1)C(=O)NCC(=O)N[C@@H](CCC(=O)O)C(=O)N[C@@H](Cc1ccccc1)C(=O)N[C@@H](CCC(N)=O)C(=O)N[C@@H](CS)C(=O)N[C@H](C(=O)N[C@@H](CS)C(=O)N[C@@H](CCC(=O)O)C(=O)O)[C@@H](C)CC` [N102T466F-M479E, FCLDQIGEFQCICE] (H-FCLDQIGEFQCICE-OH; N-terminus and C-terminus assumed), the IC50 in the series on HEK-293T-Jagged-1 cells was above 100 µM; with S1-M1-80 cells [1], 43.9 ± 3.4 µM. Further, in the series “in vitro”, the IC50 at 3 days is above 100 µM.

`CC[C@H](C)[C@H](N)C(=O)NCC(=O)N[C@@H](CCC(=O)O)C(=O)N[C@@H](Cc1ccccc1)C(=O)N[C@@H](CCC(N)=O)C(=O)N[C@@H](CS)C(=O)N[C@H](C(=O)N[C@@H](CS)C(=O)N[C@@H](CCSC)C(=O)N1CCC[C@H]1C(=O)NCC(=O)O)[C@@H](C)CC` [Peptide N112, IGEFQCICMPG] (H-IGEFQCICMPG-OH; N-terminus and C-terminus assumed): the IC50 with S1 and in the series with S1-M1-80 cells [1] was above 100 µM each time.

Regarding `CC[C@H](C)[C@H](NC(=O)[C@H](CCC(N)=O)NC(=O)[C@H](CC(=O)O)NC(=O)[C@H](CC(C)C)NC(=O)[C@H](CS)NC(=O)[C@@H](N)CC(C)C)C(=O)NCC(=O)N[C@@H](CCC(=O)O)C(=O)N[C@@H](Cc1ccccc1)C(=O)N[C@@H](CCC(N)=O)C(=O)N[C@@H](CS)C(=O)N[C@H](C(=O)N[C@@H](CS)C(=O)N[C@@H](CCC(=O)O)C(=O)O)[C@@H](C)CC` [N102T466L-M479E, LCLDQIGEFQCICE] (H-LCLDQIGEFQCICE-OH; N-terminus and C-terminus assumed), the values for the IC50 in the series with HEK-293T-Jagged-1 cells and in the series with S1-M1-80 cells [1] were above 100 µM and 5.4 ± 1.2 µM, respectively. Besides, in the series “in vitro”, the IC50 at 3 days is above 100 µM.

As for `CC[C@H](C)[C@H](NC(=O)[C@H](CCC(N)=O)NC(=O)[C@H](CC(=O)O)NC(=O)[C@H](CC(C)C)NC(=O)[C@@H](N)CS)C(=O)NCC(=O)N[C@@H](CCC(=O)O)C(=O)N[C@@H](Cc1ccccc1)C(=O)N[C@@H](CCC(N)=O)C(=O)N[C@@H](CS)C(=O)N[C@H](C(=O)N[C@@H](CS)C(=O)O)[C@@H](C)CC` [Peptide N103, CLDQIGEFQCIC] (H-CLDQIGEFQCIC-OH; N-terminus and C-terminus assumed), the IC50 in the series on S1 is above 100 µM; in the series on S1-M1-80 cells [1], above 50 µM.

As to `CC[C@H](C)[C@H](NC(=O)[C@H](CCC(N)=O)NC(=O)[C@H](CC(=O)O)NC(=O)[C@H](CC(C)C)NC(=O)[C@@H](N)CS)C(=O)NCC(=O)N[C@@H](CCC(=O)O)C(=O)N[C@@H](Cc1ccccc1)C(=O)N[C@@H](CCC(N)=O)C(=O)N[C@@H](CS)C(=O)N[C@H](C(=O)N[C@@H](CS)C(=O)N[C@@H](CCSC)C(=O)N1CCC[C@H]1C(=O)O)[C@@H](C)CC` [Peptide N101, CLDQIGEFQCICMP] (H-CLDQIGEFQCICMP-OH; N-terminus and C-terminus assumed), the IC50 in the series on S1 is above 50 µM; with S1-M1-80 cells [1], 14.1 ± 0.7 µM.

As for CLDQIGE [Peptide N108, CLDQIGE], the IC50 in the series with S1 and with S1-M1-80 cells [1] was above 100 µM in each case.

Take CLDQIG [Peptide N109, CLDQIG]: the IC50 in the series with S1 and in the series with S1-M1-80 cells [1] was above 100 µM in each case.

`CC[C@H](C)[C@H](NC(=O)[C@H](CCC(N)=O)NC(=O)[C@H](CC(=O)O)NC(=O)[C@H](CC(C)C)NC(=O)[C@@H](N)CS)C(=O)NCC(=O)N[C@@H](CCC(=O)O)C(=O)N[C@@H](Cc1ccccc1)C(=O)N[C@@H](CCC(N)=O)C(=O)N[C@@H](CS)C(=O)O` [Peptide N105, CLDQIGEFQC] (H-CLDQIGEFQC-OH; N-terminus and C-terminus assumed): the IC50 in the series on S1 and in the series with S1-M1-80 cells [1] was above 100 µM throughout.

For the compound CLDQIGEF [Peptide N107, CLDQIGEF], the IC50 in the series with S1 and in the series on S1-M1-80 cells [1] was above 100 µM throughout.

Regarding `CC(C)C[C@H](NC(=O)[C@@H](N)CS)C(=O)N[C@@H](CC(=O)O)C(=O)N[C@@H](CCC(N)=O)C(=O)O` [Peptide N111, CLDQ] (H-CLDQ-OH; N-terminus and C-terminus assumed), the IC50 in the series with S1 and with S1-M1-80 cells [1] was above 100 µM in each case.

`CC[C@@]1(O)C(=O)OCc2c1cc1n(c2=O)Cc2cc3c(CN(C)C)c(O)ccc3nc2-1` [Topotecan, reference compound]: the IC50 in the series on S1 (Homo sapiens, 72 h, S1 cells, 3 days, MTS, read-out: IC50 (μM) S1) stood at 0.19 ± 0.05 µM; in the series on S1-M1-80 cells [1] (Homo sapiens, 72 h, S1-M1-80 cells, 3 days, MTS, read-out: IC50 (μM) s1-m1-80) it was 14.9 ± 0.1 µM. The colony formation in the series with S1-M1-80 cells [2] was determined as 1263 colonies/well.
